Test results: patent publication US6794492B2, “Perfluoroalkyl compounds and their methods of use and manufacture” (Clemson University, priority 2000, dated 2004)

Experiments:
lung tumor cell line = assay: NCI in vitro anti-tumor screen, three-cell line evaluation (SRB protein assay), lung; format: cell-based, human; settings: sample concentration 5.00 E-05 Molar, 48 hour continuous drug exposure
Method: The testing below was conducted by the United States Public Health Service, Department of Health and Human Services. The National Cancer Institute (NCl) in vitro anti-tumor screening test consists of about 60 human tumor cell lines against which compounds are tested at a minimum of 5 concentrations at 10 fold dilutions. A 48 hour continuous drug exposure protocol is used, and a sulforhodamine B (SRB) protein assay is used to estimate cell viability or growth.
(§1) Data for the compound shown in the attached FIG. 3 which was tested according to the National Cancer Institutes Developmental Theraputics Program (dose response curves) is shown in attached FIG. 13.

CNS tumor cell line = assay: NCI in vitro anti-tumor screen, three-cell line evaluation (SRB protein assay), CNS; format: cell-based, human; settings: sample concentration 5.00 E-05 Molar, 48 hour continuous drug exposure
breast tumor cell line = assay: NCI in vitro anti-tumor screen, three-cell line evaluation (SRB protein assay), breast; format: cell-based, human; settings: sample concentration 5.00 E-05 Molar, 48 hour continuous drug exposure
Method: The testing below was conducted by the United States Public Health Service, Department of Health and Human Services. […] A 48 hour continuous drug exposure protocol is used, and a sulforhodamine B (SRB) protein assay is used to estimate cell viability or growth.
as §1

human tumor cell lines = assay: NCI three-cell line evaluation, overall activity call; format: cell-based; settings: three-cell line (lung, breast, CNS); 5.00 E-05 Molar

For `CC[C@H](C)[C@H](NC(=O)[C@H](Cc1ccc(O)cc1)NCC(F)(F)F)C(=O)OC(C)(C)C` [S712619], which “Growth Percentages lung” value (lung tumor cell line) is on record?
Its value is −77%.

And the “Growth Percentages CNS” value (CNS tumor cell line)?
Its value is −75%.

And the “Growth Percentages breast” value (breast tumor cell line)?
The value was −57%.

And the activity (human tumor cell lines)?
The activity was “active”.
